pIC50: −log10 of the molar value.
Experiments:
[1] = target: LSD1-CoREST-HDAC1 complex (Homo sapiens, UniProt Q13547); assay: fluorescent deacetylase assay with the LSD1-CoREST-HDAC1 complex (Example 2, FIG. 3A); format: biochemical
Protocol: The inventors evaluated their preliminary PROTACs in vitro using an established fluorescent deacetylase assay with the LSD1-CoREST-HDAC1 complex. This complex was used as an exemplary HDAC multiprotein complex to determine if such heterobifunctional molecules PROTACs 1-4 can still engage the HDAC enzyme in the context of an intact multiprotein complex.
(§1) Inhibition tests against LSD1-HDAC-CoREST complex were performed using a two-enzyme fluorescence-based HDAC assay. The inhibitor/PROTACs were dissolved at 50 mM in DMSO, then 1:2 serial dilutions performed using HDAC assay buffer (50 mM Tris pH 7.5, 150 mM NaCl) to afford range of concentrations.
(§2) The assays were performed in black 96-well plates with a reaction volume of 50 μL per well. All determinations were performed in triplicate. […] After an incubation of 20 minutes at 37° C. and 150 rpm, deacetylation was stopped by the addition of 50 μL of a developing solution containing trypsin (50 mM Tris pH 7.5, 100 mM NaCl, 10 mg/mL trypsin). […] HDAC Activity was calculated by subtracting the average blank fluorescence from the well fluorescence. Graphpad Prism software was utilised to determine IC50 values.

CoREST = CoREST (Homo sapiens, UniProt Q13547); assay: HDAC inhibition assay, CoREST complex (Table 1, run under different conditions); format: biochemical; conditions: Table 1 conditions (differ from FIG. 3)
Protocol: as §1, §2

NuRD = NuRD (Homo sapiens, UniProt Q13547); assay: HDAC inhibition assay, NuRD complex (Table 1); format: biochemical
MiDAC = MiDAC (Homo sapiens, UniProt Q13547); assay: HDAC inhibition assay, MiDAC complex (Table 1); format: biochemical
SMRT = SMRT (Homo sapiens, UniProt O15379); assay: HDAC inhibition assay, SMRT complex (Table 1); format: biochemical
HDAC1 [2] = target: T1, HDAC1 (Homo sapiens, UniProt Q13547); assay: HDAC1 degradation in HCT116 cells, quantitative western blot; format: cell-based; conditions: for Dmax: HCT-116, 24 h, read-out: HDAC1 Degrader (% Degradation)
T1 construct: endogenous in cells; host or cells: HCT116
Protocol: (§3) The compounds were screened at 0.1 μM, 1 μM and 10 μM in a HCT116 cell line. The maximum degradation observed irrespective of the concertation was recorded. The screening of the new compounds was done in 6-well plates, 5 mL media, with 400,000 cells per well to increase throughput.
(§4) HCT116 or mES cells were treated 24 hours after seeding. 24 hours post treatment, cells were harvested, lysed in lysis buffer (50 mM Tris-HCl, 150 mM NaCl, 0.5% NP-40, 0.5% Triton X-100) with protease inhibitor (Sigma, P8340), then incubated on ice for 30 minutes, before being centrifuged (18,000 ref, 15 minutes, 4° C.). The supernatant was collected, and protein concentrations quantified via Bradford Assay using Protein Assay Dye Reagent Concentrate (BIO-RAD). For histone extraction, an equal volume of 0.4 N H2SO4 was added to the pellets and the extracts placed at 4° C. overnight. Following overnight incubation, the tubes were centrifuged (18,000 ref, 15 minutes, 4° C.) and then the supernatant (histone extract) collected.
(§5) PageRuler™ Plus Prestained Ladder was used for size standards. After gel electrophoresis at 140V for 75-90 minutes the separated proteins were transferred onto nitrocellulose membrane at 30V for 60 minutes. The membranes were probed with primary antibodies (listed below) for 60-90 minutes. Blots were developed with complimentary IRDye conjugated secondary antibodies and the bands visualised using the Odyssey Infrared Imaging System. Image processing and band intensity quantification was performed using Image Studio Lite.

HDAC2 [3] = target: T2, HDAC2 (Homo sapiens, UniProt Q92769); assay: HDAC2 degradation in HCT116 cells, quantitative western blot; format: cell-based; conditions: for Dmax: HCT-116, 24 h, read-out: HDAC 2 Degrader (% Degradation)
T2 construct: endogenous in cells; host or cells: HCT116
Protocol: as §3, §4, §5

HDAC3 = target: T3, HDAC3 (Homo sapiens, UniProt O15379); assay: HDAC3 degradation in HCT116 cells, quantitative western blot; format: cell-based; conditions: for Dmax: HCT-116, 24 h, HCT116, screened at 0.1, 1 and 10 μM, maximum degradation irrespective of concentration, read-out: HDAC 3 degrader (% Degradation)
T3 construct: endogenous in cells; host or cells: HCT116
Protocol: as §3, §4, §5

H3K56ac [4] = assay: H3K56ac levels in E14 mouse embryonic stem cells, quantitative western blot; format: cell-based; conditions: E14 mES cells, 24 h; CI-994 40 μM, Panobinostat 30 nM
Protocol: The inventors proceeded to assess their compounds effects on HDAC activity in cells.
To examine the ability of PROTACs 1-4 to reduce HDAC1, 2 and 3 activity in cells they began by measuring H3K56ac using quantitative western blotting (see FIG. 3B).
as §4
as §5, with “Western blots were run on NuPAGE™ 4-12% Bis-Tris gels with 20-30 μg of protein or 10 μL of acid-extracted histone loaded per lane, using NuPAGE™ LDS Sample Buffer (4×). PageRuler™” for “PageRuler™”

H3K9ac = assay: Histone H3 Lys9 acetylation levels in HCT116 cells; format: cell-based, human; conditions: HCT116, 24 h, 10 μM
Protocol: Acetylation levels of Histone H3 Lys9 (H3K9ac), another established residue for HDAC activity, were also determined in HCT116 cells after 24 hours treatment with PROTAC 4.
as §4
Western blots were run on NuPAGE™ 4-12% Bis-Tris gels with 20-30 μg of protein or 10 μL of acid-extracted histone loaded per lane, using NuPAGE™ LDS Sample Buffer (4×). PageRuler™ Plus Prestained Ladder was used for size standards. After gel electrophoresis at 140V for 75-90 minutes the separated proteins were transferred onto nitrocellulose membrane at 30V for 60 minutes. […] Image processing and band intensity quantification was performed using Image Studio Lite.

[5] = tested on: HCT116 colon cancer cell line; assay: Cell cycle / cell death by FACS in HCT116 colon cancer cell line; format: cell-based, human; conditions: HCT116, 48 hours, 10 μM
Protocol: The inventors then investigated the effect of PROTAC 4 on the cell cycle in the colon cancer HCT116 cell line.
[…] Cells were washed in PBS prior to incubation with […] of propidium iodide and RNase A (10 μg/mL) for 30 min at room temperature in the dark. Samples were analysed using the BD FACSCanto II flow cytometer (BD Biosciences) in the PE A channel with BD FACSDiva software.

HDAC1 [6] = target: T1, HDAC1; assay: HDAC1 degradation in HCT116 cells, quantitative western blot; format: cell-based; conditions: HCT116, 24 h, 10 nM
HDAC2 [7] = target: T2, HDAC2; assay: HDAC2 degradation in HCT116 cells, quantitative western blot; format: cell-based; conditions: HCT116, 24 h, 10 nM
H3K56Ac [8] = assay: Increase of H3K56Ac (Table 1 screen); format: cell-based, human; conditions: HCT116 screen; cell line not restated at the table
Protocol: as §3, §4
Western blots were run on NuPAGE™ 4-12% Bis-Tris gels with 20-30 μg of protein or 10 μL of acid-extracted histone loaded per lane, using NuPAGE™ LDS Sample Buffer (4×). PageRuler™ Plus Prestained Ladder was used for size standards. After gel electrophoresis at 140V for 75-90 minutes the separated proteins were transferred onto nitrocellulose membrane at 30V for 60 minutes. The membranes were probed with primary antibodies (listed below) for 60-90 minutes. Blots were developed with complimentary IRDye conjugated secondary antibodies and the bands visualised using the Odyssey Infrared Imaging System. Image processing and band intensity quantification was performed using Image Studio Lite.

[9] = HCT116, 24 h, 1 μM, remaining level
[10] = HCT116, screened at 0.1, 1 and 10 μM, maximum degradation irrespective of concentration

T3 sequence (O15379 whole entry): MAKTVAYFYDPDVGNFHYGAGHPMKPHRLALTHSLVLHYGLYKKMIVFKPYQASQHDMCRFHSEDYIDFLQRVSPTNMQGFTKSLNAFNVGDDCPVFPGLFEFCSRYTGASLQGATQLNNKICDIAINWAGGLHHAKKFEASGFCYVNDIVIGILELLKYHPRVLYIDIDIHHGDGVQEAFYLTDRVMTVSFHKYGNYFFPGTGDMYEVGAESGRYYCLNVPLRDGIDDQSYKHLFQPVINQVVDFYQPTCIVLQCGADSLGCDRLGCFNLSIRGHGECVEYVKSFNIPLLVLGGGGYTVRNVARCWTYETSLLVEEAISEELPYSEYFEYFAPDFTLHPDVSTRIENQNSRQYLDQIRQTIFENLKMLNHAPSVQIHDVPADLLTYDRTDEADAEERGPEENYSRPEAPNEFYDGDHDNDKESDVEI
SMRT, sequence (O15379 whole entry): as above
SMRT, sequence (Q9Y618 389-480 partner limits assumed): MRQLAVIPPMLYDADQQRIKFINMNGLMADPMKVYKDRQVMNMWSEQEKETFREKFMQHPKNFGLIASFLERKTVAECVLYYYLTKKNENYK
T2 sequence (Q92769 whole entry): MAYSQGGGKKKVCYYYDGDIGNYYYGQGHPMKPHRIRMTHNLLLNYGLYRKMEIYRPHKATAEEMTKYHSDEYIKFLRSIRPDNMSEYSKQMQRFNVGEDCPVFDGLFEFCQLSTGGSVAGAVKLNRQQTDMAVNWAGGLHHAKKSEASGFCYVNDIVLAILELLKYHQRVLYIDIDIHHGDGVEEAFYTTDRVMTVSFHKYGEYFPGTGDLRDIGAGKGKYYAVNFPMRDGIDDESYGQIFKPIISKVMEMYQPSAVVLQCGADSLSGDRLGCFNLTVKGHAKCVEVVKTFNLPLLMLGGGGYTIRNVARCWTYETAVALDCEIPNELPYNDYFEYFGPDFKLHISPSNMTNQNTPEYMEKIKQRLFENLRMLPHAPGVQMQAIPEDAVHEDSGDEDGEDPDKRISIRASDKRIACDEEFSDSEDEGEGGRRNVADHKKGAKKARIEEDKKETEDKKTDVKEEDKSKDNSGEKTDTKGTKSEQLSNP
T1 sequence (Q13547 whole entry): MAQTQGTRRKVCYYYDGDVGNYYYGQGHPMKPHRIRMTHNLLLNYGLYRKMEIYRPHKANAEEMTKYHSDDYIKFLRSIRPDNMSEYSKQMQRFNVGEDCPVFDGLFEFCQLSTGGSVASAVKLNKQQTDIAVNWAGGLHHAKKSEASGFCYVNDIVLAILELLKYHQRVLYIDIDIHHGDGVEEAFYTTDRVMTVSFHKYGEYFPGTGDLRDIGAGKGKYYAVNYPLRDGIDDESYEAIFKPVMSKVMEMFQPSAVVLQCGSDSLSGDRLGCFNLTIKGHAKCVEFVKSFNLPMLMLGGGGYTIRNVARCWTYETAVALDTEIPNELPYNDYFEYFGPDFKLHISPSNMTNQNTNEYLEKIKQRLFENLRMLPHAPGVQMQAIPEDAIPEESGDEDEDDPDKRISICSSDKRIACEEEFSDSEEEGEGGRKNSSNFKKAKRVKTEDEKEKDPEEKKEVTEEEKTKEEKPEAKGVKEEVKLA
CoREST, sequence (Q13547 whole entry, other chains not shown): as the sequence (Q13547 whole entry) above
CoREST, sequence (Q9UKL0 86-485 partner limits assumed, other chains not shown): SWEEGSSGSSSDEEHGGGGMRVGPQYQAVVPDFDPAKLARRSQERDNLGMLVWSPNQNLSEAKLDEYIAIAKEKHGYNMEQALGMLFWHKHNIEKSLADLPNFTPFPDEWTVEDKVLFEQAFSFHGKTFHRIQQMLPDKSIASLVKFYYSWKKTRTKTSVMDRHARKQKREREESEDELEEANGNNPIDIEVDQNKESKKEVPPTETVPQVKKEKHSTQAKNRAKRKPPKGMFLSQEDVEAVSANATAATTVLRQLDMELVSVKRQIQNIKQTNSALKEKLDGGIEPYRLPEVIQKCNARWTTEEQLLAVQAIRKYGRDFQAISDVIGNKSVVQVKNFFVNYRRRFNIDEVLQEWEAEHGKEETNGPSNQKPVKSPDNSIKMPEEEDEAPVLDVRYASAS
NuRD, sequence (Q13547 whole entry): as the sequence (Q13547 whole entry) above
NuRD, sequence (Q13330 162-546 partner limits assumed): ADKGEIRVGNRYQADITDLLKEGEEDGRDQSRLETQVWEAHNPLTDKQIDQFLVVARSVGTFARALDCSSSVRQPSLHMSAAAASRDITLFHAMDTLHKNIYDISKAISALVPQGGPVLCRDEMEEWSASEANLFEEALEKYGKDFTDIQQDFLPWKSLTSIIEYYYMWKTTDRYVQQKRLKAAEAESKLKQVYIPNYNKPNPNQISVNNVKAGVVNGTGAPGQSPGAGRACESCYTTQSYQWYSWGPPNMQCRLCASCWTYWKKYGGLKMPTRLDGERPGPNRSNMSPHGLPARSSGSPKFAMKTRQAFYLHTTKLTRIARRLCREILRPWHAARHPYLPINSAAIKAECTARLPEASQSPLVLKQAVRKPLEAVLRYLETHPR
NuRD, sequence (Q09028 whole entry partner): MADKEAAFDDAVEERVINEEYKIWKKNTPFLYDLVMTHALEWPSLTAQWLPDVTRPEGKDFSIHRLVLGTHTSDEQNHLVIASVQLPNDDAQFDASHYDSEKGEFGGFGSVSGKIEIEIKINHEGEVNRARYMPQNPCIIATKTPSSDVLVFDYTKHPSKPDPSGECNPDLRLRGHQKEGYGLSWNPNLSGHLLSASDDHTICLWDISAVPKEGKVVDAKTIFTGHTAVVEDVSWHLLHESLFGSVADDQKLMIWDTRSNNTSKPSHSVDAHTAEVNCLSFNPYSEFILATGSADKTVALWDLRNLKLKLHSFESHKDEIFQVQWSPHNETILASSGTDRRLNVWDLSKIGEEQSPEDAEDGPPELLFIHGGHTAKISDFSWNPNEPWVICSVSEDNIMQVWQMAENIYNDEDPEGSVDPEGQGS
LSD1-CoREST-HDAC1 complex, sequence (Q13547 whole entry, other chains not shown): as the sequence (Q13547 whole entry) above
LSD1-CoREST-HDAC1 complex, sequence (Q9UKL0 86-485 partner limits assumed, other chains not shown): as the sequence (Q9UKL0 86-485 partner limits assumed, other chains not shown) above
MiDAC, sequence (Q13547 whole entry): as the sequence (Q13547 whole entry) above
MiDAC, sequence (Q6PJG2 628-887 partner limits assumed): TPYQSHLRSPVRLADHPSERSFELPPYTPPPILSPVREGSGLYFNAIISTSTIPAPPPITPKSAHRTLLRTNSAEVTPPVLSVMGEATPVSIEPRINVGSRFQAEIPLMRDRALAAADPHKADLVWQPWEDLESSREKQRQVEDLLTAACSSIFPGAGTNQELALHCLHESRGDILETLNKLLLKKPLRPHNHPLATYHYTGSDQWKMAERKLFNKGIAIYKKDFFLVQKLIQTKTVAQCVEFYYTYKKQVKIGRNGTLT
MiDAC, sequence (Q9H147 whole entry partner): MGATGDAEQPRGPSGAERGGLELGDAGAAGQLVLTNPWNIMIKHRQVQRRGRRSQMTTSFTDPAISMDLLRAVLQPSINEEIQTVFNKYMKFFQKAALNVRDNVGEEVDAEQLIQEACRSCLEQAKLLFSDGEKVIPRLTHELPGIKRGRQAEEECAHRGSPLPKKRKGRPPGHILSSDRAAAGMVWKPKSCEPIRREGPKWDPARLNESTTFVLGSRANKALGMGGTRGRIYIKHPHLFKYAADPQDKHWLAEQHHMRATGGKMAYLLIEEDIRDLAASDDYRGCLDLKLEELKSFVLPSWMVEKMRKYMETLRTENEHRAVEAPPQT

| Structure (SMILES) | pIC50 (CoREST) | pIC50 (NuRD) | pIC50 (MiDAC) | pIC50 (SMRT) | Dmax (HDAC1 [2]; [10]) | Dmax (HDAC2 [3]; [10]) | Dmax (HDAC3) | Increase H3K56Ac (Y/N/partial) (H3K56Ac [8]) | also measured |
| --- | --- | --- | --- | --- | --- | --- | --- | --- | --- |
| CC(=O)Nc1ccc(C(=O)Nc2ccccc2NC(=O)OC(C)(C)C)cc1 [Compound 5, Tert-butyl (2-(4-acetamidobenzamido)phenyl)carbamate, reference compound] | – | – | – | – | – | – | – | – | HDAC inhibition ([1]; LSD1-CoREST-HDAC1 complex): no HDAC inhibition |
| Cc1ncsc1-c1ccc(CNC(=O)[C@@H]2C[C@@H](O)CN2C(=O)[C@@H](NC(=O)CCCCCCCCCCC(=O)Nc2ccc(C(=O)Nc3ccccc3N)cc2)C(C)(C)C)cc1 [PROTAC4, N1-(4-((2-aminophenyl)carbamoyl)phenyl)-N12-((S)-1-((2S,4R)-4-hydroxy-2-((4-(4-methylthiazol-5-yl)benzyl)carbamoyl)pyrrolidin-1-yl)-3,3-dimethyl-1-oxobutan-2-yl)dodecanediamide] | 6.40 | 6.38 | 6.47 | 6.38 | 85% | 76% | 63% | – | pIC50 ([1]; LSD1-CoREST-HDAC1 complex in vitro): 4.77; HDAC1 degradation (HDAC1 [2]; HCT116, 24 h, 1 μM): approximately 50%; HDAC1 level (DMSO control = 100%) (HDAC1 [2]; [9]): 40-48%; HDAC1 degradation (HDAC1 [2]; HCT116, 24 h, 10 μM): near complete degradation; HDAC2 degradation (HDAC2 [3]; HCT116, 24 h, 1 μM): approximately 50%; HDAC2 level (DMSO control = 100%) (HDAC2 [3]; [9]): 40-48%; HDAC2 degradation (HDAC2 [3]; HCT116, 24 h, 10 μM): near complete degradation; HDAC3 degradation (HDAC3; HCT116, 24 h, 1 μM): approximately 50%; HDAC3 level (DMSO control = 100%) (HDAC3; [9]): 40-48%; HDAC3 levels (HDAC3; HCT116, 24 h, 10 μM): decreased; H3K56 acetylation level (H3K56ac [4]): increase in acetylation to similar levels; H3K9 acetylation levels compared to DMSO control (H3K9ac): highly elevated; cell death [5]: significant cell death; HDAC1 levels (HDAC1 [6]): not recovered; HDAC2 levels (HDAC2 [7]): not recovered |
| Cc1ncsc1-c1ccc(CNC(=O)[C@@H]2C[C@@H](O)CN2C(=O)[C@@H](NC(=O)COCCCCCCCCC(=O)Nc2ccc(C(=O)Nc3ccccc3N)cc2)C(C)(C)C)cc1 [PROTAC13, (2S,4R)-1-((S)-2-(2-((9-((4-((2-aminophenyl)carbamoyl)phenyl)amino)-9-oxononyl)oxy)acetamido)-3,3-dimethylbutanoyl)-4-hydroxy-N-(4-(4-methylthiazol-5-yl)benzyl)pyrrolidine-2-carboxamide] | 6.07 | 5.93 | 5.84 | 6.46 | 58% | 52% | 69% | – | – |
| CN[C@@H](C)C(=O)N[C@H](C(=O)N1C[C@@H](NC(=O)COCCOCCOCC(=O)Nc2ccc(C(=O)Nc3ccccc3N)cc2)C[C@H]1C(=O)N[C@@H]1CCCc2ccccc21)C1CCCCC1 [PROTAC28, (2S,4S)-4-(2-(2-(2-(2-((4-((2-aminophenyl)carbamoyl)phenyl)amino)-2-oxoethoxy)ethoxy)ethoxy)acetamido)-1-((S)-2-cyclohexyl-2-((S)-2-(methylamino)propanamido)acetyl)-N-((R)-1,2,3,4-tetrahydronaphthalen-1-yl)pyrrolidine-2-carboxamide] | – | – | – | – | – | – | 57% | partial | HDAC1 Degrader (% Degradation) (HDAC1 [2]; [10]): No; HDAC 2 Degrader (% Degradation) (HDAC2 [3]; [10]): No |

The next lines start with results.

| pIC50 (CoREST) | pIC50 (NuRD) | pIC50 (MiDAC) | pIC50 (SMRT) | Dmax (HDAC1 [2]; [10]) | Dmax (HDAC2 [3]; [10]) | Dmax (HDAC3) | Structure (SMILES) | Increase H3K56Ac (Y/N/partial) (H3K56Ac [8]) | also measured |
| --- | --- | --- | --- | --- | --- | --- | --- | --- | --- |
| 5.42 | – | – | 6.07 | 58% | 21% | 46% | Cc1ncsc1-c1ccc(CNC(=O)[C@@H]2C[C@@H](O)CN2C(=O)[C@@H](NC(=O)CCCCCCCCCCC(=O)Nc2ccc(C(=O)Nc3ccc(F)cc3N)cc2)C(C)(C)C)cc1 [PROTAC17, N1-(4-((2-amino-4-fluorophenyl)carbamoyl)phenyl)-N12-((S)-1-((2S,4R)-4-hydroxy-2-((4-(4-methylthiazol-5-yl)benzyl)carbamoyl)pyrrolidin-1-yl)-3,3-dimethyl-1-oxobutan-2-yl)dodecanediamide] | partial | – |
| – | – | – | – | 51% | 26% | 67% | Cc1ncsc1-c1ccc(CNC(=O)[C@@H]2C[C@@H](O)CN2C(=O)[C@@H](NC(=O)COCCCCCCCCCOCC(=O)Nc2ccc(C(=O)Nc3ccc(F)cc3N)cc2)C(C)(C)C)cc1 [PROTAC20, (2S,4R)-1-((S)-2-(2-((9-(2-((4-((2-amino-4-fluorophenyl)carbamoyl)phenyl)amino)-2-oxoethoxy)nonyl)oxy)acetamido)-3,3-dimethylbutanoyl)-4-hydroxy-N-(4-(4-methylthiazol-5-yl)benzyl)pyrrolidine-2-carboxamide] | partial | – |
